Source: patent publication US10548894B2, “Combination therapy” (Array BioPharma Inc., priority 2013, dated 2020)

Assays:
Experiment in all cases: 72 hr cell titer Glo proliferation assay, BRAFV600E mutant CRC cell lines
Type in all cases: cell-based
LS411N = settings: single agent
Experimental: (§1) Single agent and combinatorial effects on proliferation of inhibitors of RAF (Compound of Formula (I)) and PIK3Ca (Compound X) kinases in seven BRAF-mutant CRC-derived cell lines. All cell lines express the BRAFV600E protein. Cells harboring known or putative activating mutations in the PI3Kα gene are marked with a (*) and cells with PTEN loss marked with a (#). Cell proliferation was measured in 72 hr cell titer Glo™ assays and all results supplied are the result of at least triplicate measurements. Shown are single agent IC50 values for the Compound of Formula (I) and Compound X. Synergy score (SS) measurements as well as the combination index (C150) at the 50% effect level are given for each combination) in Table 6. Interactions were deemed synergistic when SS values were ≥2.0 and CI values were ≤0.5. Interactions were deemed additive/synergistic when either SS values were ≥2.0 but CI values were >0.5 or SS values were <2.0 but CI values were ≤0.5. Interactions where termed additive when SS values were <2.0 and CI values were >0.5. Synergy calls are given in the “effect description” columns.

COLO 205 = settings: COLO 205, single agent
Experimental: as §1

CL-34 = settings: CL-34, single agent
Experimental: as §1

OUMS-23 = OUMS-23 (PTEN loss), single agent
Experimental: as §1

HT-29 = HT-29 (PI3Kα mutation), single agent
Experimental: as §1

SNU-C5 = SNU-C5 (PI3Kα mutation), single agent
Experimental: as §1

RKO = RKO (PI3Kα mutation), single agent
Experimental: as §1

SW1417 = settings: SW1417, single agent
Experimental: as §1

IC50 (COLO 205): > 2700 nM
IC50 (HT-29): > 2700 nM
IC50 (SNU-C5): > 2700 nM
IC50 (SW1417): > 2700 nM
SMILES: Cc1nc(NC(=O)N2CCC[C@H]2C(N)=O)sc1-c1ccnc(C(C)(C)C(F)(F)F)c1 [Compound X, (S)-Pyrrolidine-1,2-dicarboxylic acid 2-amide 1-({4-methyl-5-[2-(2,2,2-trifluoro-1,1-dimethyl-ethyl)-pyridin-4-yl]-thiazol-2-yl}-amide)]
IC50 (LS411N): > 2700 nM
IC50 (CL-34): > 2700 nM
IC50 (OUMS-23): > 2700 nM
IC50 (RKO): > 2700 nM
